The source of these data is patent US10781262B2, “Combination therapy of T cell activating bispecific antigen binding molecules and PD-1 axis binding antagonists” (Hoffmann-La Roche Inc., priority 2014, dated 2020).

Like-named read-outs stand apart in the source and are kept apart here.

The test system of experiment [1] is primary CD34+ AML cells from relapsed/refractory patients. As to the kind of experiment: Cytotoxic activity on primary AML cells, CellTiter-Glo. In kind it is cell-based, human. Particulars: Fab-PE24 constructs, 3 days; for IC50: Homo sapiens, 72 h. The source says: CD34^+ cells from peripheral blood of relapsed/refractory patients were obtained from AllCells, LLC, Alameda, Calif. […] (see FIG. 31).
(§1) Cycloheximide was used as positive control.
A general note: ATP-based viability assays read luminescence as a measure of living cells.

The subject of a further experiment is Karpas-299. As to the kind of experiment: Cytotoxic activity, CellTiter-Glo Luminescent Cell Viability Assay. Particulars: Fab-PE24 constructs. In kind it is cell-based.
Text: as §1

The next experiment deals with CMK. Described as above. In kind it is cell-based. Particulars: Fab-PE24 constructs.
Text: as §1

Another experiment concerns TF-1. Described as above. Particulars: Fab-PE24 constructs. In kind it is cell-based.
Text: as §1

A further experiment has as its system MOLM-13. The experiment is described as above. Format: cell-based. Particulars: Fab-PE24 constructs.
Text: as §1

A further experiment has as its system RPMI-8226 cells. The description is as above. Particulars: for IC50: Homo sapiens. On the procedure: (§2) Treatment ranges from 10 μg/ml to 1 ng/ml in triplicate. All antibodies were used as full length mouse Fcγ versions. For conjugation of the conjugation of the Pseudomonas exotoxin 10 μg/ml of mouse Fcγ fragment specific Fabs conjugated with PE 24 were added and incubated for 3 days at 37° C. Cycloheximide as a known protein synthesis inhibitor in eukaryotes was used as positive control. Viability of treated cells were measured with Promega CellTiter-Glo Luminescent Cell Viability Assay.
(§3) The cytotoxic activity was calculated as follow: Rel. Inhibition [%]=(1−(Esampel−E negative control)/(E positive control−E negative control))*100
(§4) All antibodies were used as full length human IgG1 format including the human Fcgamma part. In this experiment conjugation of the Pseudomonas exotoxin was achieved via human Fcγ fragment specific Fabs conjugated with PE 24 (10 μg/ml) which were added and incubated for 5 days at 37° C.
(§5) The cytotoxic activity was analysed with Promega CellTiter-Glo Luminescent Cell Viability Assay as described above. 1:5 serial dilutions of Fab-fragments of disclosed anti-TIM3 antibodies directly conjugated to PE24 with the highest concentration of 50 μg/ml or appropriate media to untreated cells or non-binding anti-PSMA Fab-PE24 control to untargeted treated cells were incubated with 7.5×10^3 Pfeiffer cells or 2×10^3 RPMI-8226 cells (50 μl/well in […]) for 4 days at 37° C. Treatment ranges from 50 μg/ml to 8 ng/ml in triplicate. Cycloheximide was used as positive control.
(§6) The evaluation of cytotoxic activity of sortase coupled Fab-PE24 constructs of selected disclosed anti-TIM3 antibodies was analysed with Promega CellTiter-Glo Luminescent Cell Viability Assay as described above in Example 28.

A further experiment has as its system Pfeiffer cells. The experiment is described as above. Particulars: for IC50: Homo sapiens, Pfeiffer. The procedure:
as §2, §3, §4, §5, §6

In experiment [2] the test system is recombinant CHO K1 stabile expressing human TIM-3. Described as above. Particulars: CHO-K1, 72 h; sandwich format: mouse Fcγ antibodies + mouse Fcγ specific Fabs conjugated with PE 24, 3 days. In kind it is cell-based.
Experiment [3] deals with cynomolgus Folate Receptor 1 (FolR1-Fc). Particulars: bivalent binding (avidity), ligand cyFolR1. On the procedure: (§7) Binding of FolR1 binders as IgG or in the T-cell bispecific format to different recombinant folate receptors (human FolR1, 2 and 3, murine FolR1 and cynomolgus FolR1; all as Fc fusions) was assessed by surface plasmon resonance (SPR). All SPR experiments were performed on a Biacore T200 at 25° C. with HBS-EP as running buffer (0.01 M HEPES pH 7.4, 0.15 M NaCl, 3 mM EDTA, 0.005% Surfactant P20, Biacore, Freiburg/Germany).
The avidity of the interaction between the anti-FolR1 IgGs or T cell bispecifics and the recombinant folate receptors was determined as described below (Table 9). Recombinant biotinylated monomeric Fc fusions of human, cynomolgus and murine Folate Receptor 1 (FolR1-Fc) were directly coupled on a SA chip using the standard coupling instruction (Biacore, Freiburg/Germany). The immobilization level was about 300-400 RU. The anti-FolR1 IgGs or T cell bispecifics were passed at a concentration range from 2.1 to 500 nM with a flow of 30 μL/minutes through the flow cells over 180 seconds. The dissociation was monitored for 600 seconds. […] The binding curves resulting from the bivalent binding of the IgGs or T cell bispecifics were approximated to a 1:1 Langmuir binding and fitted with that model (which is not correct, but gives an idea of the avidity). The apparent avidity constants for the interactions were derived from the rate constants of the fitting using the Bia Evaluation software (GE Healthcare).

Experiment [4] has as its target human Folate Receptor 1 Fc fusion (Homo sapiens, UniProt P15328). Particulars: monovalent binding (affinity), analyte huFolR1. The procedure: as §7
(§8) For affinity measurement, direct coupling of around 6000-7000 resonance units (RU) of the anti-human Fab specific antibody (Fab capture kit, GE Healthcare) was performed on a CM5 chip at pH 5.0 using the standard amine coupling kit (GE Healthcare). Anti-FolR1 IgGs or T cell bispecifics were captured at 20 nM with a flow rate of 10 μl/min for 20 or 40 sec, the reference flow cell was left without capture. Dilution series (6.17 to 500 nM or 12.35 to 3000 nM) of human or cyno Folate Receptor 1 Fc fusion were passed on all flow cells at 30 μl/min for 120 or 240 sec to record the association phase. The dissociation phase was monitored for 240 s and triggered by switching from the sample solution to HBS-EP. The chip surface was regenerated after every cycle using a double injection of 60 sec 10 mM Glycine-HCl pH 2.1 or pH 1.5. Bulk refractive index differences were corrected for by subtracting the response obtained on the reference flow cell 1. The affinity constants for the interactions were derived from the rate constants by fitting to a 1:1 Langmuir binding using the Bia Evaluation software (GE Healthcare).

The target of experiment [5] is cyno Folate Receptor 1 Fc fusion. Particulars: monovalent binding (affinity), analyte cyFolR1. On the procedure: as §7, §8
A further experiment has as its system cynomolgus FolR1. Particulars: IgG injected for 60 seconds at 500 nM. On the procedure: as §7
(§9) First the anti-FolR1 IgGs were analyzed by single injections (Table 1) to characterize their crossreactivity (to human, murine and cyno FolR1) and specificity (to human FolR1, human FolR2, human FolR3). Recombinant biotinylated monomeric Fc fusions of human, cynomolgus and murine Folate Receptor 1 (FolR1-Fc) or human Folate Receptor 2 and 3 (FolR2-Fc, FolR3-Fc) were directly coupled on a SA chip using the standard coupling instruction (Biacore, Freiburg/Germany). The immobilization level was about 300-400 RU. The IgGs were injected for 60 seconds at a concentration of 500 nM.

In a further experiment the target is murine FolR1 (Mus musculus, UniProt P35846). Particulars: IgG injected for 60 seconds at 500 nM. On the procedure: as §7, §9
Another experiment deals with human FolR3 (Homo sapiens, UniProt P41439). Particulars: IgG injected for 60 seconds at 500 nM. The procedure:
as §7, §9

The next experiment concerns the target human FolR1 (Homo sapiens, UniProt P15328). Particulars: IgG injected for 60 seconds at 500 nM. The procedure: as §7, §9
In the next experiment the target is human FolR2 (Homo sapiens, UniProt P14207). Particulars: IgG injected for 60 seconds at 500 nM. The procedure:
as §7, §9

Experiment [6] has as its target T1, human Folate Receptor 1 (FolR1-Fc) (Homo sapiens, UniProt P15328).
T1 construct: the extracellular domain of the antigen linked to the hinge region of Fc-knob; made in house; host or cells: HEK293 EBNA
As to the kind of experiment: SPR avidity to Folate Receptor 1 (bivalent binding). Particulars: bivalent binding (avidity), ligand huFolR1. The source says: The immobilization level was about 300-400 RU. […] The dissociation was monitored for 600 seconds.

Where [7] appears, read: human IgG1 format + human Fcγ specific Fabs conjugated with PE 24, 5 days.
Where [8] appears, read: sortase coupled Fab-PE24 constructs.
Setting [9] is: Fab-PE24 construct vs. total IgG-Amatoxin conjugate.

Sequence of cyno Folate Receptor 1 Fc fusion (as listed by the source): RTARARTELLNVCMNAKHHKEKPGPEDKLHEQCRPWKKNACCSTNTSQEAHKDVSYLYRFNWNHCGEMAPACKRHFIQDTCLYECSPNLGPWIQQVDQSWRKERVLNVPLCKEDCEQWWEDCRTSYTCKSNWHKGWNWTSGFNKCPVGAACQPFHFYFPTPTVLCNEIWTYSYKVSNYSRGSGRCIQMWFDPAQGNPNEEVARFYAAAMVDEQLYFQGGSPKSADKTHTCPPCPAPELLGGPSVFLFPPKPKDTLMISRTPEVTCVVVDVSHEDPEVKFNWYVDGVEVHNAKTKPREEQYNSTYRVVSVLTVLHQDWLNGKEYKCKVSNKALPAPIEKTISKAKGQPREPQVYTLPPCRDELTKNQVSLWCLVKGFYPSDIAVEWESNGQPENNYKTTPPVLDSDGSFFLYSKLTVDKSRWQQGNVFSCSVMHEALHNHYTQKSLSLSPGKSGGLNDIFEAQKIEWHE
Sequence of cyno Folate Receptor 1 Fc fusion (P01857 104-330 isoform P01857-1 Y232C/T249S/L251A/Y290V/H318R/Y319F partner): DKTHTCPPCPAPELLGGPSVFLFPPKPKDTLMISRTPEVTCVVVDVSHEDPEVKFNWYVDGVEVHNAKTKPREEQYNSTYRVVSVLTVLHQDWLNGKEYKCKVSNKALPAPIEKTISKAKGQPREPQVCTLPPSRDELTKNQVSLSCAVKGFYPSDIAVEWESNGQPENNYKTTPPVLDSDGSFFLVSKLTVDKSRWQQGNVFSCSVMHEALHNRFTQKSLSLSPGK
Sequence of cynomolgus Folate Receptor 1 (FolR1-Fc) (as listed by the source): as the sequence (as listed by the source) above
Sequence of cynomolgus Folate Receptor 1 (FolR1-Fc) (as listed by the source partner): as the sequence (P01857 104-330 isoform P01857-1 Y232C/T249S/L251A/Y290V/H318R/Y319F partner) above
Sequence of human Folate Receptor 1 Fc fusion (P15328 with tags, fused parts or gaps): as the sequence (as listed by the source) above, with T2I, R4W, K37R, P146A, Y171H counted along it
Sequence of human Folate Receptor 1 Fc fusion (P01857 104-330 isoform P01857-1 Y232C/T249S/L251A/Y290V/H318R/Y319F partner): as the sequence (P01857 104-330 isoform P01857-1 Y232C/T249S/L251A/Y290V/H318R/Y319F partner) above
T1 sequence (P15328 with tags, fused parts or gaps): as the sequence (as listed by the source) above, with T2I, R4W, K37R, P146A, Y171H counted along it
T1 sequence (P01857 104-330 isoform P01857-1 Y232C/T249S/L251A/Y290V/H318R/Y319F partner): as the sequence (P01857 104-330 isoform P01857-1 Y232C/T249S/L251A/Y290V/H318R/Y319F partner) above
Sequence of human FolR2 (P14207 with tags, fused parts or gaps): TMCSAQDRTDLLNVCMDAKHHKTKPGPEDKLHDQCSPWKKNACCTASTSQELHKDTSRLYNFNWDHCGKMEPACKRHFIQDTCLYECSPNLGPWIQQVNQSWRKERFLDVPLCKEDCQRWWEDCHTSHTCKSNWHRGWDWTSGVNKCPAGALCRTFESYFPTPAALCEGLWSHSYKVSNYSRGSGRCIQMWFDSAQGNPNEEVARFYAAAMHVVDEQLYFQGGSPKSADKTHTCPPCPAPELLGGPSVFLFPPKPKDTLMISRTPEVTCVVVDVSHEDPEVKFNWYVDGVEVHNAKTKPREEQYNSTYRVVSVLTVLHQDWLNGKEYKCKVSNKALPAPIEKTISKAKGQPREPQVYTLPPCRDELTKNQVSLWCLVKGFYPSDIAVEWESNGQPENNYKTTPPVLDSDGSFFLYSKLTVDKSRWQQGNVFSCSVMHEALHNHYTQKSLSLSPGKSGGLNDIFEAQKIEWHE
Sequence of human FolR2 (P01857 104-330 isoform P01857-1 Y232C/T249S/L251A/Y290V/H318R/Y319F partner): as the sequence (P01857 104-330 isoform P01857-1 Y232C/T249S/L251A/Y290V/H318R/Y319F partner) above
Sequence of cynomolgus FolR1 (as listed by the source): as the sequence (as listed by the source) above
Sequence of murine FolR1 (P35846 with tags, fused parts or gaps): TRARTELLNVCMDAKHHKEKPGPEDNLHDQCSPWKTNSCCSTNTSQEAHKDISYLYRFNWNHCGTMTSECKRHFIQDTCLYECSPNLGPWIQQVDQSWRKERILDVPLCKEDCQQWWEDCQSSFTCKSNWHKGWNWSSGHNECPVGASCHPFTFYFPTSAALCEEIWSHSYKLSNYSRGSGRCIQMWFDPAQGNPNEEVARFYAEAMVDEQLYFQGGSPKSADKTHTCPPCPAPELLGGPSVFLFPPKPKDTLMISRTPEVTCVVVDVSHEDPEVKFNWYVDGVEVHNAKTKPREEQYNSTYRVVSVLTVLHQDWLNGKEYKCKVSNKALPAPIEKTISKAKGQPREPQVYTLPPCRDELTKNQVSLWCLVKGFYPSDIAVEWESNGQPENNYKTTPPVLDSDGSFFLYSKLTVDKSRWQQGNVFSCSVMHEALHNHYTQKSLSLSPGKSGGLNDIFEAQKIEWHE
Sequence of murine FolR1 (as listed by the source partner): as the sequence (P01857 104-330 isoform P01857-1 Y232C/T249S/L251A/Y290V/H318R/Y319F partner) above
Sequence of human FolR1 (P15328 with tags, fused parts or gaps): as the sequence (as listed by the source) above, with T2I, R4W, K37R, P146A, Y171H counted along it
Sequence of human FolR1 (P01857 104-330 isoform P01857-1 Y232C/T249S/L251A/Y290V/H318R/Y319F partner): as the sequence (P01857 104-330 isoform P01857-1 Y232C/T249S/L251A/Y290V/H318R/Y319F partner) above
Sequence of human FolR3 (P41439 with tags, fused parts or gaps): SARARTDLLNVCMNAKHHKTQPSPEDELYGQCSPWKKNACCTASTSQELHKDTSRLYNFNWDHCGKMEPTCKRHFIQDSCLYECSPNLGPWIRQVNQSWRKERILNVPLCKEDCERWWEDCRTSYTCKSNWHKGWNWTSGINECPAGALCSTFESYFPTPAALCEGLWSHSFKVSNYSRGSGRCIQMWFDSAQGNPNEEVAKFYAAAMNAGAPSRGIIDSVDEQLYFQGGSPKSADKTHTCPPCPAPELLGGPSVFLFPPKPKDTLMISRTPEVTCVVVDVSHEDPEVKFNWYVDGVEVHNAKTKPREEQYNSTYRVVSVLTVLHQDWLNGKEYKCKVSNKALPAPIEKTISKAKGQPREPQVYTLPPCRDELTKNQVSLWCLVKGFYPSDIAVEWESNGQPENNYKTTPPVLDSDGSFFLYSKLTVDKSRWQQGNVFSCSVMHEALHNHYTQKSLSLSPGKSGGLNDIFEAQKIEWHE
Sequence of human FolR3 (P01857 104-330 isoform P01857-1 Y232C/T249S/L251A/Y290V/H318R/Y319F partner): as the sequence (P01857 104-330 isoform P01857-1 Y232C/T249S/L251A/Y290V/H318R/Y319F partner) above

`C[C@@H]1C[C@@H]([C@H](O)CC2CC(=O)NC(=O)C2)C(=O)[C@@H](C)C1` [Cycloheximide]: the Max. killing in experiment [1] (D1, AML CD34+ PB0136 cells) was 100 [%]; in [1] (D2, AML CD34+ PB0142 cells) it was 100 [%]; in experiment [1] (D3, AML CD34+ PB0135 cells), 100 [%]; in experiment [1] (D4, AML CD34+ PB0193 cells), 100 [%]; in the experiment on Karpas-299 it was 100 [%]; in the experiment with CMK it was 100 [%]. Besides, the Max. killing in the experiment on TF-1 was 100 [%]; in the experiment on MOLM-13, 100 [%]; in the experiment with RPMI-8226 cells (Fab-PE24 constructs, 4 days), 100 [%]; in the experiment on RPMI-8226 cells (setting [7]), 100 [%]; with RPMI-8226 cells (setting [8]), 100 [%]; in the experiment with Pfeiffer cells (setting [9]), 100 [%]. The Max. killing with Pfeiffer cells (setting [7]) and in the experiment on Pfeiffer cells (setting [8]) was 100 [%] each time. For the same compound, the IC50 – broadly, the midpoint of a concentration-inhibition curve – in [1] (D1, AML CD34+ PB0136 cells) was 212 nM; in experiment [1] (D2, AML CD34+ PB0142 cells), 262 nM; in experiment [1] (D3, AML CD34+ PB0135 cells) it was 121 nM; in [1] (D4, AML CD34+ PB0193 cells) it was 208 nM; in the experiment with Karpas-299 (Homo sapiens, KARPAS-299), 113 nM; in the experiment on CMK (Homo sapiens, CMK) it was 149 nM. In addition, the IC50 is 207 nM in the experiment on TF-1 (Homo sapiens, TF-1); 156 nM with MOLM-13 (Homo sapiens, MOLM-13); 153 nM in the experiment on RPMI-8226 cells (RPMI-8226); 281 nM in the experiment on RPMI-8226 cells (RPMI-8226, 96 h); 181 nM with Pfeiffer cells (72 h, sandwich format: mouse Fcγ antibodies + mouse Fcγ specific Fabs conjugated with PE 24, 3 days); 271 nM in the experiment on Pfeiffer cells (120 h, read-out: Rel. IC50, human IgG1 format + human Fcγ specific Fabs conjugated with PE 24, 5 days). The IC50 with Pfeiffer cells (setting [9]) was 163 nM; with Pfeiffer cells (setting [8]) it was 271 nM; in experiment [2], 135 nM.
For the compound Farletuzumab [reference compound], the ka worked out at 1.33e+06 M⁻¹ s⁻¹ in [3], 417000 M⁻¹ s⁻¹ in experiment [4], 553000 M⁻¹ s⁻¹ in experiment [5] and 1.23e+06 M⁻¹ s⁻¹ in experiment [6]. The kd in experiment [3] was 0.000868 s⁻¹; in [4], 0.023 s⁻¹; in experiment [5] it was 0.0373 s⁻¹; in experiment [6], 0.0009 s⁻¹. Besides, the Kd is 0.65 nM in experiment [3] (read-out: Apparent KD, approximated 1:1 Langmuir fit) and 67.3 nM in experiment [5]. In addition, the “Binding to cyFolR1” value in the experiment on cynomolgus FolR1 is “+”. Besides, the “Binding to muFolR1” value at murine FolR1 is “−”. Also, the “Binding to huFolR3” value on human FolR3 is “−”. Moreover, at human FolR1, the “Binding to huFolR1” value was “+”. Besides, at human FolR2, the “Binding to huFolR2” value was “−”.
